We go through one molecule from article PMC8745345, “Hydroxy Pentacyclic Triterpene Acid, Kaempferol, Inhibits the Human 5-Hydroxytryptamine Type 3A Receptor Activity” (International Journal of Molecular Sciences, 2022).

What is called IC50 is the point on the concentration scale where inhibition reaches its midpoint. A low value points to greater potency in that assay.

Format in all cases: cell-based
In test [1] the target is T1, human 5-HT3A receptor R65A mutant (Homo sapiens, UniProt P46098, R87A).
T1 sequence (P46098 24-478 R87A): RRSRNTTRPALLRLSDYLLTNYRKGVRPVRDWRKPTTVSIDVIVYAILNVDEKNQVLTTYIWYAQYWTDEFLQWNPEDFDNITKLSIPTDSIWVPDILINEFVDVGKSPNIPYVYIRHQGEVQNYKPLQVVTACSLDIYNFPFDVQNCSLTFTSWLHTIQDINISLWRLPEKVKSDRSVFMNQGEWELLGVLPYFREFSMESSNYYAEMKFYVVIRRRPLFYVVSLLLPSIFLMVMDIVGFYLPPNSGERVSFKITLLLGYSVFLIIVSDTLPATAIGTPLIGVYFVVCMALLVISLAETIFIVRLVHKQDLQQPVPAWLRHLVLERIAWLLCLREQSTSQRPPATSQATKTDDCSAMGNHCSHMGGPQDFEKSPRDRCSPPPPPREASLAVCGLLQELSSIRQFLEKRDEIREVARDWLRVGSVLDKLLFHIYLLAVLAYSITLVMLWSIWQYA
The test can be described thus: Two-electrode voltage clamp, I5-HT inhibition, R65A mutant. Particulars: −80 mV. (In general: Two-electrode voltage clamp is typically applied to oocytes expressing channels or transporters.)
Procedure: (§1) Xenopus oocytes were used in this study as cells for expression of human 5-HT3A receptor. All female frogs used in this experiment were obtained from the Korean Xenopus Resource Center for Research (KXRCR000001). […] Xenopus oocytes were extracted during ice incubation state and isolated as single oocytes using collagenase II (2 mg/mL) in OR2 buffer (82.5 mM NaCl, 2 mM KCl, 1 mM MgCl2, 5 mM HEPES, pH 7.4). Isolated oocytes were incubated with ND96 incubation buffer (96 mM NaCl, 2 mM KCl, 1 mM MgCl2, 1.8 mM CaCl2, 5 mM HEPES, 2.5 mM sodium pyruvate, and 50 mg/mL gentamycin, pH 7.4) at 18 °C until the experiment was performed. Human 5-HT3A receptor mRNA was injected into oocytes using a nanoinjector (Drummond Scientific, Broomall, PA, USA) with a mineral-filled 10 μL microdispenser (VWR, Piscataway, NJ, USA).
(§2) To confirm the KAE activity on the human 5-HT3A receptor, a two-electrode voltage clamp (OC-725C; Warner Instruments, Hamden, CT, USA) with a Digitata 1550A was used. For the experiment, induced-inward current was converted to digital data with pClamp 10 software (Axon Instruments, Union City, CA, USA). All experiments were performed at room temperature using an oocyte clamp equipped with Digidata. The membrane holding potential was −80 mV.
(§3) The voltage relationship experiment for confirming the relationship between induce-inward current and voltage, the voltage was varied from −80 mV to +60 mV using a ramp protocol. […] All recording data were analyzed using Clampfit 9.0 (Molecular Devices, San Jose, CA, USA). […]
(§4) All presented experiments were performed at least three times for scientific verification. […] Induced-inward current data were analyzed with SigmaPlot 10.0 software (Systat Software, Inc., San Jose, CA, USA). […]

The target in test [2] is T2, human 5-HT3A receptor E209A mutant (Homo sapiens, UniProt P46098, E231A).
T2 construct: expressed in transfected cells; host or cells: Xenopus oocytes injected with mutant mRNA
T2 sequence (P46098 24-478 E231A): T1 sequence (P46098 24-478 R87A) with A64R, E208A
In words: Two-electrode voltage clamp, I5-HT inhibition, E209A mutant. On the procedure:
Human 5-HT3A receptor cDNA was linearized using restriction enzyme XhoI. In vitro transcription was performed using an mMESSAGE mMACHINE T7 Transcription Kit (Thermo Fisher Scientific, Waltham, MA, USA). The final mRNA product was dissolved in 1X Diethyl Pyrocarbonate (RNase-free water) at a final concentration of 1 μg/μL and kept in a deep-freezer at −80 °C until used.
Xenopus oocytes were used in this study as cells for expression of human 5-HT3A receptor. All female frogs used in this experiment were obtained from the Korean Xenopus Resource Center for Research (KXRCR000001). […] Isolated oocytes were incubated with ND96 incubation buffer (96 mM NaCl, 2 mM KCl, 1 mM MgCl2, 1.8 mM CaCl2, 5 mM HEPES, 2.5 mM sodium pyruvate, and […], pH 7.4) at 18 °C until the experiment was performed. Human 5-HT3A receptor mRNA was injected into oocytes using a nanoinjector (Drummond Scientific, Broomall, PA, USA) with a mineral-filled 10 μL microdispenser (VWR, Piscataway, NJ, USA).
For the experiment, induced-inward current was converted to digital data with pClamp 10 software (Axon Instruments, Union City, CA, USA). All experiments were performed at room temperature using an oocyte clamp equipped with Digidata. The membrane holding potential was −80 mV.
The voltage relationship experiment for confirming the relationship between induce-inward current and voltage, the voltage was varied from −80 mV to +60 mV using a ramp protocol. Each microelectrode was filled with 3 M KCl having a resistance of 0.2 MΩ. Serotonin and KAE applied in the experiment were diluted in ND96 bath solution (96 mM NaCl, 2 mM KCl, 1 mM MgCl2, 1.8 mM CaCl2, and 5 mM HEPES, pH 7.5) to specified concentration. The rate of application of the reagent was 2 mL per minute. All recording data were analyzed using Clampfit 9.0 (Molecular Devices, San Jose, CA, USA). […]
All presented experiments were performed at least three times for scientific verification. […] Induced-inward current data were analyzed with SigmaPlot 10.0 software (Systat Software, Inc., San Jose, CA, USA).

Test [3] deals with T3, human 5-HT3A receptor D177A mutant (Homo sapiens, UniProt P46098, D199A).
T3 sequence (P46098 24-478 D199A): T1 sequence (P46098 24-478 R87A) with A64R, D176A
In words: Two-electrode voltage clamp, I5-HT inhibition, D177A mutant. Particulars: −80 mV.
Procedure: as §1, §2, §3, §4

Residue numbers refer to the chain shown, from its start.

With `O=c1c(O)c(-c2ccc(O)cc2)oc2cc(O)cc(O)c12` [KAE, kaempferol], the IC50 in test [1] stood at 44.7 ± 9.1 µM; in test [2], 55.1 ± 5.8 µM; in test [3] (Table 1) it was 13.9 ± 4.2 µM. For the same molecule, the Vmax in test [1] is 82.6 ± 7.4%; in test [2] (E209A, −80 mV) it was 81.1 ± 9.7%; in test [3] (Table 1), 23.3 ± 13.4%. For the same molecule, the “n (Hill coefficient)” value in test [1] came out at 1.8 ± 0.7; in test [2] (E209A, −80 mV), 1.7 ± 0.6; in test [3] it was 1.3 ± 0.2.
